Experimental data reported in article PMC10439952, “JT002, a small molecule inhibitor of the NLRP3 inflammasome for the treatment of autoinflammatory disorders” (Scientific Reports, 2023).

How the values were obtained:
NLRP3 inflammasome = NLRP3 inflammasome (Homo sapiens, UniProt Q96P20); assay: Inhibition of IL-1β production in LPS stimulated (alternative pathway) human whole blood; format: cell-based
Protocol: Inflammasome activation and whole blood assays were essentially carried out as described earlier. Details can be found in the supplementary information section accompanying this publication. A protocol for blood draws from healthy volunteers and use of the blood in preclinical assays was approved by Western Institutional Review Board, Inc (Puyallup, WA, USA). Informed consent was obtained from each donor prior to the first blood draw.
Cell viability was determined by addition of an equal volume of CellTiter-Glo® 2.0 reagent (Promega) to the remaining cells/supernatant in each well. Intracellular Caspase-1 activity was measured using the Caspase-Glo® assay (Promega) according to the manufacturer’s instructions. The biochemical capsase-1 assay was conducted at Reaction Biology Corporation (Malvern, USA). Human IL-1β, IL-1α, and TNFα and mouse IL-1β were measured in cell culture supernatants using homogeneous time resolved fluorescence assay kits (HTRF, Cisbio, Codolet, France). Human IL-18 was measured in cell culture supernatants using an ELISA kit (R&D Systems, Minneapolis, MN, USA). Plasma IL-1β concentrations were determined by Quantikine® ELISA (R&D Systems, Minneapolis, MN). […]
flagellin, prepared in Opt iMEM and combined with Lipofectamine 2000. […]

[1] = test system: ozone exposed C57BL6/J mice; assay: Murine model of ozone induced neutrophilic airway inflammation; format: in vivo, mouse
Protocol: Four groups of 4 or 5 female C57BL6/J mice (The Jackson Laboratory, Bar Harbor, ME) at 8–12 weeks of age were housed under pathogen-free conditions and maintained on an ovalbumin-free diet. Mice were dosed orally with JT002 at 2.5 or 25 mg/kg once daily for 4 days. On the last day, 1-h post-dosing of test compound, mice were exposed to O3 at 1.0 ppm for 3 h in stainless steel wire cages set inside 240-L laminar flow inhalation chambers. O3 was generated by directing compressed medical-grade oxygen through an electrical discharge O3 generator (Sander Ozonizer, Model 25, Erwin Sander Elektroapparatebau GmbH, Uetze-Eltze, Germany) located upstream of the exposure chamber. Exposure to HEPA-filtered air was done in a separate chamber with age- and treatment-matched control animals.
Determination of airway hyperresponsiveness (AHR) AHR was assessed on Day 30 (iTreg model) or 3 h after the O3 exposure (ozone model) as a change in airway resistance (cm H2O/mL/s) after challenge with aerosolized methacholine with using a whole body plethysmograph-based system (National Jewish Medical and Research Center, Denver, CO). Methacholine aerosol was administered by nebulization in increasing concentrations (12.5–100 mg/mL) and RL was continuously computed by fitting flow, volume, and pressure to an equation of motion (Labview, National Instruments, Dallas, TX). Bronchoalveolar Lavage Immediately after assessment of AHR, lungs were lavaged via the tracheal tube with 1 mL of Hanks’ balanced salt solution (Gibco, Grand Island, NY). Total cell numbers were counted. Differential cell counts for neutrophils and macrophages were performed in a blinded fashion by counting at least 200 cells on cytocentrifuged preparations (Model Cytospin 3, Shandon Ltd, Runcorn, UK) stained with Leukostat (Fisher Diagnostics, Fair Lawn, NJ). Cell-free BAL fluid was stored at − 80 °C until measurements of cytokine levels by ELISA (eBioscience, San Diego, CA) were performed. Blood Collection Immediately following AHR measurement, mice were euthanized by exsanguination and blood collected for serum. Samples were stored at − 80 °C for subsequent measurement of immunoglobulin levels by ELISA. Lung Histology After BAL collection, lungs were inflated through the trachea with 1 mL of 10% formalin, removed and fixed in 10% formalin by immersion. Blocks of the lung tissue were cut around the main bronchus and embedded in paraffin blocks. Tissue sections (5 μm) were affixed to glass slides, and the slides were deparaffinized and stained with H&E for qualitative analysis of inflammatory cell influx and epithelial desquamation.

[2] = 2.5 mg/kg orally once daily for 4 days
[3] = 25 mg/kg orally once daily for 4 days

Chain of NLRP3 inflammasome (Q96P20 whole entry): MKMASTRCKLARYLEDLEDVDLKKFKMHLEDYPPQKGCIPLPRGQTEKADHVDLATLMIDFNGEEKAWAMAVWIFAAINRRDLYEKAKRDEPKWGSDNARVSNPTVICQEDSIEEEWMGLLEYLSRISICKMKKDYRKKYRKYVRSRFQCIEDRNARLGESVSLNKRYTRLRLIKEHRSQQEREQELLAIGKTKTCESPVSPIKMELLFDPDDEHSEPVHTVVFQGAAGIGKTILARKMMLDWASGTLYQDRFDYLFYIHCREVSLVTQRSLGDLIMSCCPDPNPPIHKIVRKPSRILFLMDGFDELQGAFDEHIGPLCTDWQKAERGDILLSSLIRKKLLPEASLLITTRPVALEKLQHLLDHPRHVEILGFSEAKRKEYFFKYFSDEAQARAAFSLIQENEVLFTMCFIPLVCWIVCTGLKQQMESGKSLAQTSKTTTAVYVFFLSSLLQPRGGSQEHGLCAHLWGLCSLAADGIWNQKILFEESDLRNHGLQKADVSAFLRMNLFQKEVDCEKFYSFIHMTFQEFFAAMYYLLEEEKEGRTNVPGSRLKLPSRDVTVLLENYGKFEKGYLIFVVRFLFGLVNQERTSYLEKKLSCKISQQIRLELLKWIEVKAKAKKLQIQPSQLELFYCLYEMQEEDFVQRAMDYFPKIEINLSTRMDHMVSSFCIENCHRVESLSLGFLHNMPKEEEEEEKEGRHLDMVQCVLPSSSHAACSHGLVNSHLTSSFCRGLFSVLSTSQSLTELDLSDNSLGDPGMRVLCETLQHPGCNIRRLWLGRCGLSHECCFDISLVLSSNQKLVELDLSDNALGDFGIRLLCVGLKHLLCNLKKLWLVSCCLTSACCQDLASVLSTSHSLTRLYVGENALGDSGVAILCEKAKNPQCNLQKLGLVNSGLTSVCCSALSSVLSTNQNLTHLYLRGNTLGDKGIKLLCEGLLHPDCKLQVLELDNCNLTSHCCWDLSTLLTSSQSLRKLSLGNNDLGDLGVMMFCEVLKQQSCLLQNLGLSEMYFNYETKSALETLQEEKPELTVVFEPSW

IC50 (NLRP3 inflammasome; Human whole blood, LPS only (alternative pathway), read-out: Geo Av IC50, IL-1β): 32 nM
IC50 in human whole blood, alternative (LPS) versus canonical (LPS + ATP) NLRP3 pathway activation (NLRP3 inflammasome; how much lower the alternative pathway IC50 is): threefold more potent
SMILES: CO[C@@H]1COc2c(S(=O)(=O)NC(=O)Nc3c4c(cc5c3CCC5)CCC4)cnn2C1 [JT002]
AHR [1, 2]: strong trend for reduction
BAL neutrophilia [1, 2]: no effect
prevention of airway epithelial desquamation [1, 2]: strong trend
BAL fluid neutrophil numbers [1, 3]: significantly reduced
appearance of epithelial cells in the airway lumen [1, 3]: visibly reduced
number of epithelial cells in the BAL fluid [1, 3]: no effect
ozone-induced AHR [1, 3]: prevented ozone-induced AHR
